# Measurements: US7820670B2 (Alcon Research, Ltd., priority 2006, dated 2010)
# Structures can show the parent of a compound that is named as a salt.
# Tests used:
# ROCK 1 = ROCK 1 (Homo sapiens, UniProt Q13464); experiment: Rho kinase assay (IMAP ROCK-I kit, fluorescence polarization)
# Protocol: (§1) The rho kinase assays were performed using a Biomek 2000 Robotic Workstation (Beckman Instruments, Palo Alto, Calif.) in a 96-well plate format. The assay was performed utilizing the IMAP ROCK-I and ROCK-II kits (Molecular Devices, Sunnyvale, Calif.) as follows. […] The substrate, enzyme, and ATP dilutions were made with the reaction buffer provided by the vendor. Test compounds were diluted in 10:10 DMSO-ethanol (vol/vol). For the actual assay, the various components were added into black, clear bottom, 96-well plates (Costar, Corning, N.Y.) in a final volume of 20μl per well. After the enzyme reaction (60 min at 23° C.), 60 μl of the binding solution was added per well and incubated for an additional 30 minutes in the dark at 23° C. Fluorescence polarization of the reaction mixtures was then measured on the Analyst™ HT instrument (Molecular Devices, Sunnyvale, Calif.).
# ROCK 2 = target: T1, ROCK 2 (Homo sapiens, UniProt O75116); experiment: Rho kinase assay (IMAP ROCK-II kit, fluorescence polarization); assay type: biochemical; settings: substrate 200 nM, ATP 10 μM, 60 min at 23° C.
# T1 construct: purchased Molecular Devices, Sunnyvale, Calif
# T1 sequence (O75116 whole entry, species assumed): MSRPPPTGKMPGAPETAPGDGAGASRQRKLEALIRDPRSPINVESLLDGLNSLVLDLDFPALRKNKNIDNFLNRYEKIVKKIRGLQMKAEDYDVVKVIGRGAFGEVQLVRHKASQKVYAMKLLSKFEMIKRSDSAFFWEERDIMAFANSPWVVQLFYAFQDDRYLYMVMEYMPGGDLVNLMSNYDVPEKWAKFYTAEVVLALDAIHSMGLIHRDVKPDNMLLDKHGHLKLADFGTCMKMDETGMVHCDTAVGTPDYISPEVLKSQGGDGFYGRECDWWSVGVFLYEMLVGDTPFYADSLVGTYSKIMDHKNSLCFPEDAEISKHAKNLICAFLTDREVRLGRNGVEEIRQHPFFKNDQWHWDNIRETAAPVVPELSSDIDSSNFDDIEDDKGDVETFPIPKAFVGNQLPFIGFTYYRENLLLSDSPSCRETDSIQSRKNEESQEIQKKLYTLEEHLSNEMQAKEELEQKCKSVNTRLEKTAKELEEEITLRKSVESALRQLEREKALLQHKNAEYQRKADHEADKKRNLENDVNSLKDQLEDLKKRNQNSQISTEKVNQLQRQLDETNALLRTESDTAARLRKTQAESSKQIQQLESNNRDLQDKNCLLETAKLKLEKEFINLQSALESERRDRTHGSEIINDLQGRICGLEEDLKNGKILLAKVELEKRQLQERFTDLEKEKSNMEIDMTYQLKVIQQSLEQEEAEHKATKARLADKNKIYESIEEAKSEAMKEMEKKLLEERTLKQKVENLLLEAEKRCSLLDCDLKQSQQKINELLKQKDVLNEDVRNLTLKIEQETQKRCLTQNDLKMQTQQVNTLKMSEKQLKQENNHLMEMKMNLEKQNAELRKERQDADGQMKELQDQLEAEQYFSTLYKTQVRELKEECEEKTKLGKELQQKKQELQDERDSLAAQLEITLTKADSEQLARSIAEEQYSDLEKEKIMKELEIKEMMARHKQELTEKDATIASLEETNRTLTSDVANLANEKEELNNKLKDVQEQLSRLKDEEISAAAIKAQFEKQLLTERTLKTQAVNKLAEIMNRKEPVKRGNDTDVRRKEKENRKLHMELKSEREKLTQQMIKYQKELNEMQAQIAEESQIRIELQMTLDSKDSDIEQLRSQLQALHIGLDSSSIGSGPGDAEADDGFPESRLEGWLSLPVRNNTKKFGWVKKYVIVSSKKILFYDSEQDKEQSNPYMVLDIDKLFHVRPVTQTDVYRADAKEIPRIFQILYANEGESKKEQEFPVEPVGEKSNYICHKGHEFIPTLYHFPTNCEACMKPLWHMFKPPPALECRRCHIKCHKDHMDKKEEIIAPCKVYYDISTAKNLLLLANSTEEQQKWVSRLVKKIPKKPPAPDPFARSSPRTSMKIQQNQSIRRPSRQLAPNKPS
# Protocol: as §1
# Sequence of ROCK 1 (Q13464 whole entry, species assumed): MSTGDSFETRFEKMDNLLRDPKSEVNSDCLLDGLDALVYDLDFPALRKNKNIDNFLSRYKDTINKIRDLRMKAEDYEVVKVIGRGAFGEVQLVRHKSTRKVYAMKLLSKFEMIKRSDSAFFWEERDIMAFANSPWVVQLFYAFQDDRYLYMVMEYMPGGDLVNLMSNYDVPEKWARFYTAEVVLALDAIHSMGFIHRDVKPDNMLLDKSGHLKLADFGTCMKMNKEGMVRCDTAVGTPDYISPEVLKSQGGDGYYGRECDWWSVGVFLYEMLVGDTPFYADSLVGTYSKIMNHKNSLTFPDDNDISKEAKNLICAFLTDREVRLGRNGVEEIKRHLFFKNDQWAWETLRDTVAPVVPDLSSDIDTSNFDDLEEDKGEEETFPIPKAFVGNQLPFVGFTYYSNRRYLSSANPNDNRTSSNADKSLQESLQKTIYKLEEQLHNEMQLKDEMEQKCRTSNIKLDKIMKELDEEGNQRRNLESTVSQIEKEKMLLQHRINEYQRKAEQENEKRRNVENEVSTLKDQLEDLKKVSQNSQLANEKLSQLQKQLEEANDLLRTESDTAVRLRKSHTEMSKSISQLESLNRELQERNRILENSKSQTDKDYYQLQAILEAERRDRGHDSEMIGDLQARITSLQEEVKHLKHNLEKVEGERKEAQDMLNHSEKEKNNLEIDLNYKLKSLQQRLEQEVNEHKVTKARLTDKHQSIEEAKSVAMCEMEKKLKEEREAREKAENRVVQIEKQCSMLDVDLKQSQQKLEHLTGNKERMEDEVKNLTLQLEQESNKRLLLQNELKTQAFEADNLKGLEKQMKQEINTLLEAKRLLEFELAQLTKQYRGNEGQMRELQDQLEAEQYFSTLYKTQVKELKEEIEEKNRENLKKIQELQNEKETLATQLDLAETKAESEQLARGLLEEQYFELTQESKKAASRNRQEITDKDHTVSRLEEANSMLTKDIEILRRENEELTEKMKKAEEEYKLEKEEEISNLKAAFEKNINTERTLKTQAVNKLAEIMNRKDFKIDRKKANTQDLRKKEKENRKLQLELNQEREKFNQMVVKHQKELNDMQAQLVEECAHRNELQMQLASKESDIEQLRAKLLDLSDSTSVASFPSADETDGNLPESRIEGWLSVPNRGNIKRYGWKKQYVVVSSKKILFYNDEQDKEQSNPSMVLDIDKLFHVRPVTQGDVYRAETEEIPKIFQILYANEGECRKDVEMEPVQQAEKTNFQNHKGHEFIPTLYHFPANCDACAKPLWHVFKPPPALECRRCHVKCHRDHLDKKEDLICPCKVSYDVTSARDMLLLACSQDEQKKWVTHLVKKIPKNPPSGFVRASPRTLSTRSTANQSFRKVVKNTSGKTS
Structure (SMILES),IC50 (ROCK 1) [µM],IC50 (ROCK 2) [µM]
"COc1ccc(-c2cnc3ccc(NCc4ccccn4)nn23)cc1 [Example 1, 3-(4-Methoxyphenyl)-N-(pyridin-2-ylmethyl)imidazo[1,2-b]pyridazin-6-amine]",17,69
"COc1ccccc1-c1cnc2ccc(NCc3ccccn3)nn12 [Example 2, 3-(2-Methoxyphenyl)-N-(pyridin-2-ylmethyl)imidazo[1,2-b]pyridazin-6-amine fumarate]",> 100,> 100
"c1n[nH]cc1-c1cnc2ccc(N3CCOCC3)nn12 [Example 3, 4-(3-(1H-Pyrazol-4-yl)imidazo[1,2-b]pyridazin-6-yl)morpholine]",12,56
"CCCNc1ccc2ncc(-c3cc(C)cs3)n2n1 [Example 4, 3-(4-Methylthiophen-2-yl)-N-propylimidazo[1,2-b]pyridazin-6-amine]",> 100,> 100
"CCCC/C=C/c1cnc2ccc(N3CCOCC3)nn12 [Example 5, (E)-4-(3-(Hex-1-enyl)imidazo[1,2-b]pyridazin-6-yl)morpholine fumarate]",9.7,> 100
"CCCC/C=C/c1cnc2ccc(NCCCO)nn12 [Example 6, (E)-3-(3-(Hex-1-enyl)imidazo [1,2-b]pyridazin-6-ylamino)propan-1-ol fumarate]",30,33
"CCCC/C=C/c1cnc2ccc(NCCOC)nn12 [Example 7, (E)-3-(Hex-1-enyl)-N-(2-methoxyethyl)imidazo[1,2-b]pyridazin-6-amine fumarate]",35,20
"CCCC/C=C/c1cnc2ccc(NCCN(C)C)nn12 [Example 8, (E)-N^1-(3-(Hex-1-enyl)imidazo[1,2-b]pyridazin-6-yl)-N^2,N^2-dimethylethane-1,2-diamine fumarate]",58,65
"CCCC/C=C/c1cnc2ccc(NCc3ccccn3)nn12 [Example 9, (E)-3-(Hex-1-enyl)-N-(pyridin-2-ylmethyl)imidazo[1,2-b]pyridazin-6-amine fumarate]",7,3.7
"CCCC/C=C/c1cnc2ccc(NC(CC)CO)nn12 (stereo not shown) [Example 10, (E)-2-(3-(Hex-1-enyl)imidazo[1,2-b]pyridazin-6-ylamino)butan-1-ol]",78,> 100
"Cc1cnc2ccc(NCCN(C)C)nn12 [Example 11, N^1,N^1-Dimethyl-N^2-(3-methylimidazo[1,2-b]pyridazin-6-yl)ethane-1,2-diamine]",36,79
"COCCNc1ccc2ncc(C)n2n1 [Example 12, N-(2-Methoxyethyl)-3-methylimidazo[1,2-b]pyridazin-6-amine]",> 100,97
"Clc1cnc2ccc(NCc3ccccn3)nn12 [Example 13, 3-Chloro-N-(pyridin-2-ylmethyl)imidazo[1,2-b]pyridazin-6-amine]",25,17
"Clc1cnc2ccc(NCCCN3CCOCC3)nn12 [Example 14, 3-Chloro-N-(3-morpholinopropyl)imidazo[1,2-b]pyridazin-6-amine hydrochloride]",37,–
"Cc1cnc2ccc(NCc3ccccn3)nn12 [Example 15, 3-Methyl-N-(pyridin-2-ylmethyl)imidazo[1,2-b]pyridazin-6-amine hydrochloride]",67,16
"Cc1cnc2ccc(NCCCN3CCOCC3)nn12 [Example 16, 3-Methyl-N-(3-morpholinopropyl)imidazo[1,2-b]pyridazin-6-amine fumarate]",> 100,> 100
"CCCCCCc1cnc2ccc(NCCCN3CCOCC3)nn12 [Example 17, 3-Hexyl-N-(3-morpholinopropyl)imidazo[1,2-b]pyridazin-6-amine hydrochloride]",28,> 100
"CCC/C=C/c1cnc2ccc(NCCCN3CCOCC3)nn12 [Example 18, (E)-N-(3-Morpholinopropyl)-3-(pent-1-enyl)imidazo[1,2-b]pyridazin-6-amine hydrochloride]",43,88
"CCC/C=C/c1cnc2ccc(NCc3ccccn3)nn12 [Example 19, (E)-3-(Pent-1-enyl)-N-(pyridin-2-ylmethyl)imidazo[1,2-b]pyridazin-6-amine hydrochloride]",2.1,2
"C1=C(c2cnc3ccc(NCCCN4CCOCC4)nn23)CCCC1 [Example 20, 3-Cyclohexenyl-N-(3-morpholinopropyl)imidazo[1,2-b]pyridazin-6-amine hydrochloride]",55,> 100
"C1=C(c2cnc3ccc(NCc4ccccn4)nn23)CCCC1 [Example 21, 3-Cyclohexenyl-N-(pyridin-2-ylmethyl)imidazo[1,2-b]pyridazin-6-amine hydrochloride]",> 100,200
"CCCCC/C=C/c1cnc2ccc(NCCCN3CCOCC3)nn12 [Example 22, (E)-3-(Hept-1-enyl)-N-(3-morpholinopropyl)imidazo[1,2-b]pyridazin-6-amine hydrochloride]",38,120

Structure (SMILES),IC50 (ROCK 1) [µM],IC50 (ROCK 2) [µM]
"OCc1cnc2ccc(NCCCN3CCOCC3)nn12 [Example 24, (6-(3-Morpholinopropylamino)imidazo[1,2-b]pyridazin-3-yl)methanol hydrochloride]",> 100,> 100
"OCc1cnc2ccc(NCc3ccccn3)nn12 [Example 25, (6-(Pyridin-2-ylmethylamino)imidazo[1,2-b]pyridazin-3-yl)methanol hydrochloride]",> 100,> 100
"CCCCC#Cc1cnc2ccc(NCCCN3CCOCC3)nn12 [Example 26, 3-(Hex-1-ynyl)-N-(3-morpholinopropyl)imidazo[1,2-b]pyridazin-6-amine hydrochloride]",9,5.8
"CCCC/C=C\c1cnc2ccc(NCCCN3CCOCC3)nn12 [Example 27, (Z)-3-(Hex-1-enyl)-N-(3-morpholinopropyl)imidazo[1,2-b]pyridazin-6-amine hydrochloride]",43,88
"CCCCC#Cc1cnc2ccc(NCc3ccccn3)nn12 [Example 28, 3-(Hex-1-ynyl)-N-(pyridin-2-ylmethyl)imidazo[1,2-b]pyridazin-6-amine hydrochloride]",> 100,> 100
"CCCCCCc1cnc2ccc(NCc3ccccn3)nn12 [Example 29, 3-Hexyl-N-(pyridin-2-ylmethyl)imidazo[1,2-b]pyridazin-6-amine hydrochloride]",42,17
"COCc1cnc2ccc(NCCCN3CCOCC3)nn12 [Example 30, 3-(Methoxymethyl)-N-(3-morpholinopropyl)imidazo[1,2-b]pyridazin-6-amine hydrochloride]",> 100,> 100
"CCOCc1cnc2ccc(NCCCN3CCOCC3)nn12 [Example 31, 3-(Ethoxymethyl)-N-(3-morpholinopropyl)imidazo[1,2-b]pyridazin-6-amine hydrocloride]",> 100,> 100
"CCOCc1cnc2ccc(NCc3ccccn3)nn12 [Example 32, 3-(Ethoxymethyl)-N-(pyridin-2-ylmethyl)imidazo[1,2-b]pyridazin-6-amine hydrochloride]",> 100,> 100
"c1ccc(CNc2ccc3nccn3n2)nc1 [Example 33, N-(Pyridin-2-ylmethyl)imidazo[1,2-b]pyridazin-6-amine hydrochloride]",> 100,13
"COCc1cnc2ccc(NCc3ccccn3)nn12 [Example 34, hydrochloride]",> 100,> 100
"c1cn2nc(NCCCN3CCOCC3)ccc2n1 [Example 35, N-(3-Morpholinopropyl)imidazo[1,2-b]pyridazin-6-amine hydrochloride]",> 100,> 100
"CCCC/C=C/c1cnc2ccc(NCCCCO)nn12 [Example 37, (E)-4-(3-(Hex-1-enyl)imidazo[1,2-b]pyridazin-6-ylamino)butan-1-ol hydrochloride]",23,13
"CCCC/C=C/c1cnc2ccc(NCCCN3CCN(C)CC3)nn12 [Example 38, (E)-3-(Hex-1-enyl)-N-(3-(4-methylpiperazin-1-yl)propyl)imidazo[1,2-b]pyridazin-6-amine hydrochloride]",47,97
"CCCC/C=C/c1cnc2ccc(NCCCN(C)C)nn12 [Example 39, (E)-N^1-(3-(Hex-1-enyl)imidazo[1,2-b]pyridazin-6-yl)-N^3,N^3-dimethylpropane-1,3-diamine hydrochloride]",1.1,0.77
"CCCC/C=C/c1cnc2ccc(NCCN(CC)CC)nn12 [Example 40, (E)-N^1,N^1-Diethyl-N^2-(3-(hex-1-enyl)imidazo[1,2-b]pyridazin-6-yl)ethane-1,2-diamine hydrochloride]",> 100,> 100
"CCCC/C=C/c1cnc2ccc(NCCO)nn12 [Example 42, (E)-2-(3-(Hex-1-enyl)imidazo[1,2-b]pyridazin-6-ylamino)ethanol hydrochloride]",17,34
"CCCC/C=C/c1cnc2ccc(NCc3ccncc3)nn12 [Example 43, (E)-3-(Hex-1-enyl)-N-(pyridin-4-ylmethyl)imidazo[1,2-b]pyridazin-6-amine]",4.3,11
"CCCC/C=C/c1cnc2ccc(NCc3cnc(C)cn3)nn12 [Example 44, (E)-3-(Hex-1-enyl)-N-((5-methylpyrazin-2-yl)methyl)imidazo[1,2-b]pyridazin-6-amine]",22,34
"CCCC/C=C/c1cnc2ccc(NCc3cccnc3)nn12 [Example 45, (E)-3-(Hex-1-enyl)-N-(pyridin-3-ylmethyl)imidazo[1,2-b]pyridazin-6-amine]",2.3,4.7
"CCCC/C=C/c1cnc2ccc(NCCCCN(C)C)nn12 [Example 46, (E)-N^1-(3-(Hex-1-enyl)imidazo[1,2-b]pyridazin-6-yl)-N^4,N^4-dimethylbutane-1,4-diamine]",5,8.2
